Assay results: patent US11083197B2, “Herbicidal composition comprising chromone derivatives and a method for weed control” (INVESTIGACIONES BIOLÓGICAS EN AGROQUÍMICOS ROSARIO S.A., priority 2015, dated 2021)

Key:
[1] = system: lettuce; test: Phytotoxic effect on lettuce under different conditions of illumination; format: in vivo, Lactuca sativa; settings: 1 mM; light versus darkness; 7 days
Experimental: Bioassays were carried out with lettuce in Petri dishes using the commercial standards of each compound. Lettuce seeds were incubated with 4 mL of an aqueous solution of compounds or acetochlor at 1 mM. Lettuce growth was measured at 7 days of incubation.
The results of this test are shown in FIG. 14 where the Left column (diagonal stripes)=Light and the Right column (in black)=Darkness. Acetochlor was included as a reference of pre-emergent herbicide and to get the highest herbicidal effect, all compounds were tested at 1 mM. Data represent means of three replicates±SD. Different letters above the bars indicate significant differences between treatments (p<0.05).

[2] = system: crabgrass (D. sanguinalis) and velvetleaf (A. theophrasti); test: Greenhouse postemergence spray, 2.0 kg ai/ha; format: in vivo, Digitaria sanguinalis; Abutilon theophrasti; settings: for symptoms on leaves after post-emergence spray: 6-8-day-old plants, both weed species
Experimental: Aqueous solutions containing commercial standards of pure compounds of formulas III and IV were prepared and sprayed on crabgrass (D. sanguinalis) and velvetleaf (A. theophrasti). For better dissolution of compounds in water Tween 20 (1% v/v) and acetone (1% v/v) were added to spray solution. For postemergence application 6-8-day-old plants were sprayed, and final rate of compounds was 2.0 kg active ingredient (ai) ha^−1. Plant height and dry weight were measured at 11 days after spray. Results were compared with atrazine at 1.0 kg ai ha^−1.

[3] = system: A. cepa root meristem cells; test: Effect on cell division (mitotic index analysis); format: cell-based, Allium cepa; settings: for inhibition of cell division: 0 to 1000 μM; for reversibility of inhibition of cellular division: 100 μM, seeds washed at 3 days; for proportion of cells with abnormal configurations: chromosome aberrations, nuclear abnormalities, micronuclei
Experimental: Onion seeds (Allium Cepa L. Evergreen Longwhite Bunching, Burpee & Co, 2012, EE.UU) germination was carried out for 7 days with a 14-h photoperiod in 9-cm-diameter Petri dishes on a filter paper disk that was moistened with a dilution (2.5 mL) of test compound or control. Stock solutions of test compounds (100×) were prepared in acetone, and aliquots were diluted in distilled water to get the final concentration. The control consisted of water with the same proportion of acetone (1% v/v) applied in the treatments.
At 7 days of incubation, samples were processed for mitotic index analysis according to Armbruster et al.^25 Twenty root tips (1-cm sections) were fixed in glacial acetic acid:absolute ethanol (1:3 v/v) for 30 min. The segments were incubated with 5 N HCl at 25° C. for 1 h, and washed several times with distilled water. After that, segments were stained with Schiff's reagent for 45 min in the dark at 25° C. Stained meristematic regions were identified as purple tips. The root segments were transferred with tweezers to a drop of 45% acetic acid in water on a microscope slide. The tips were cut with a razor blade, and a cover slip was carefully placed over the tips and gently squashed by applying slight and constant pressure directly over the tissues. The edge of the cover slip was sealed with nail polish to delay the evaporation of acetic acid. The mitotic index was calculated by tallying the cells in various stages of mitosis. At least 1,000 cells/slide and in triplicate (3,000 cells per treatment) were counted for suitable statistical analysis of data. An Olympus BX60 microscope (Olympus, Center Valley) was used, and cells with abnormal mitotic configurations were counted as a separate class.
This procedure was slightly modified to evaluate if cell division inhibition caused by furanochromones was reversible. For this experiment onion seeds were incubated with solutions containing compounds of formulas III and IV for 3 days. After this period, all seeds were washed three times with distilled water and placed in new Petri dishes on moistened filter paper disks with distilled water (Wash+treatment). Seeds were then incubated for 4 more days, after which a mitotic index analysis was performed. As a reference to compare results, another set of onion seeds was kept with test compounds or control for 7 days (Wash−treatment) before analysis.

[4] = system: onion root tips; test: Cell death determination by Evans blue staining, root tips; format: cell-based, Allium cepa; settings: 4 days; for increase in relative cell death: 100 μM; for increase in relative cell death compared to 100 μM: 300 μM
Experimental: To evaluate cell death in roots, onion seeds were germinated and treated as described in postemergence assay with weed species. Onion seedlings were exposed to different doses of compounds of formulas III and IV (0, 100 and 300 μM) during 4 days. For the experiment with leaf disks 3-weeks-cucumber plants were used. One disk (1 cm) was placed in each well of a 12-well plate together with 1 mL of a 2% w/v sucrose/1 mM MES, pH 6.5 solution containing each of the compounds tested at the appropriate concentration (0, 100 or 300 μM) and acetone (1% v/v). Each assay was performed with leaf disks from different plants. Plates were sealed with Parafilm and incubated in a growth chamber at 21-27° C. with a 16/8 h light/dark cycle for 7 days.
Cell death was determined by Evans blue staining.^26 Root tips (5-mm sections) and leaf disks were incubated for 30 min in 0.25% w/v Evans blue aqueous solution at 25° C. on a rotary shaker. After staining, unbound dye was removed by extensive washing with deionized water. Three root tips (3 replicates) or one leaf disk (4 replicates) were ground in a tissue grind tube with 500 μL 1% w/v sodium dodecyl sulfate (SDS). The resulting suspension was centrifuged for 20 min at 20,000 g and the supernatant was used for dye quantification by monitoring the absorbance at 600 and 680 nm. Relative cell death was expressed as A600 for root tips and A600/A680 ratios for leaf disks.

SMILES: COc1c2occc2c(OC)c2c(=O)cc(C)oc12 [Formula III, 4,9-dimethoxy-7-methyl-5H-furo[3,2-g]chromen-5-one]
- light dependence of phytotoxicity or herbicidal activity [1]: not a light-dependent process
- symptoms on leaves after post-emergence spray [2]: Necrosis symptoms
- inhibition of cell division ([3]; 7 days): inhibited cell division in a dose-dependent manner
- reversibility of inhibition of cellular division [3]: irreversible
- proportion of cells with abnormal configurations [3]: higher than in the control
- increase in relative cell death [4]: two-fold
- increase in relative cell death compared to 100 μM [4]: two-fold

SMILES: COc1c2ccoc2cc2oc(C)cc(=O)c12 [Formula IV, 4-methoxy-7-methyl-5H-furo[3,2-g]chromen-5-one]
- light dependence of phytotoxicity or herbicidal activity [1]: not a light-dependent process
- symptoms on leaves after post-emergence spray [2]: Necrosis symptoms
- plant size and biomass respect solvent control ([2]; 11 days after spray): significant reduction of plant size and biomass
- inhibition of cell division ([3]; 7 days): inhibited cell division in a dose-dependent manner
- reversibility of inhibition of cellular division [3]: irreversible
- inhibition of onion cell division ([3]; 300 μM, 7 days): completely inhibited
- proportion of cells with abnormal configurations [3]: higher than in the control
- increase in relative cell death [4]: two-fold
- increase in relative cell death compared to 100 μM [4]: two-fold
